Data as given in article PMC10907374, “G2019S selective LRRK2 kinase inhibitor abrogates mitochondrial DNA damage” (NPJ Parkinson's Disease, 2024).
Where “and” joins values, the source holds several entries; their conditions need not be identical. Identical values can stand only once. Entries after “also recorded” stand apart in the source; their conditions may differ.

Assays:
human LRRK2 (WT-LRRK2) = biological target: T1, human LRRK2 (WT-LRRK2) (Homo sapiens, UniProt Q5S007); assay: LRRK2 pSer935 quantitative western immunoblot in HEK293 cells stably overexpressing WT-LRRK2; type: cell-based
T1 construct: WT-LRRK2 or G2019S-LRRK2 overexpressing cells show expression of LRRK2 pSer1292 and full-length LRRK2; expressed in transfected cells
Procedure: (§1) Cells were plated at a density of 0.3 × 10^6 cells in a 6-well dish and treated at ~40–50% confluency. At the time of harvest, cells were collected and either protein collected or DNA extracted as described below.
For LRRK2-WT or G2019S-LRRK2, ~1.5 million cells were pelleted and resuspended in 75 μl of lysis buffer [(RIPA Buffer (Sigma-Aldrich, R0278-50ML), protease inhibitor cocktail (Sigma-Aldrich, P8340), and Halt phosphatase inhibitor cocktail (Thermo Fisher, 78420)]. For LCLs, five million cells were pelleted and resuspended in 100 µl of lysis buffer. For both types of cells lysates were centrifuged at 10,000 × g after a 10 min incubation on ice, and the supernatant was collected. Protein was quantified using the DC protein assay (Bio-Rad, 5000112). In total, 50 μg of protein was loaded for HEK293 LRRK2-WT or G2019S-LRRK2 cells. Due to the differing endogenous LRRK2 levels, 40 µg of ND02559, 60 µg of ND00264, or 100 µg of ND00011 and ND01618 of protein sample was loaded. Protein samples were incubated at 100 °C for 5 min with NuPAGE Sample loading dye (Thermo Fisher, NP0007) and dithiothreitol as reducing agent. […] Fluorescence intensities were quantified using ImageStudio Lite software (LI-COR), and the signal from the protein of interest was normalized to the fluorescence intensity of either LRRK2 or β-actin. […]

[1] = biological target: T2, G2019S variant of human LRRK2 (G2019S-LRRK2) (Homo sapiens, UniProt Q5S007, G2019S); assay: LRRK2 pSer935 quantitative western immunoblot in HEK293 cells stably overexpressing G2019S-LRRK2; type: cell-based
T2 construct: WT-LRRK2 or G2019S-LRRK2 overexpressing cells show expression of LRRK2 pSer1292 and full-length LRRK2; expressed in transfected cells
T2 sequence (Q5S007 whole entry G2019S): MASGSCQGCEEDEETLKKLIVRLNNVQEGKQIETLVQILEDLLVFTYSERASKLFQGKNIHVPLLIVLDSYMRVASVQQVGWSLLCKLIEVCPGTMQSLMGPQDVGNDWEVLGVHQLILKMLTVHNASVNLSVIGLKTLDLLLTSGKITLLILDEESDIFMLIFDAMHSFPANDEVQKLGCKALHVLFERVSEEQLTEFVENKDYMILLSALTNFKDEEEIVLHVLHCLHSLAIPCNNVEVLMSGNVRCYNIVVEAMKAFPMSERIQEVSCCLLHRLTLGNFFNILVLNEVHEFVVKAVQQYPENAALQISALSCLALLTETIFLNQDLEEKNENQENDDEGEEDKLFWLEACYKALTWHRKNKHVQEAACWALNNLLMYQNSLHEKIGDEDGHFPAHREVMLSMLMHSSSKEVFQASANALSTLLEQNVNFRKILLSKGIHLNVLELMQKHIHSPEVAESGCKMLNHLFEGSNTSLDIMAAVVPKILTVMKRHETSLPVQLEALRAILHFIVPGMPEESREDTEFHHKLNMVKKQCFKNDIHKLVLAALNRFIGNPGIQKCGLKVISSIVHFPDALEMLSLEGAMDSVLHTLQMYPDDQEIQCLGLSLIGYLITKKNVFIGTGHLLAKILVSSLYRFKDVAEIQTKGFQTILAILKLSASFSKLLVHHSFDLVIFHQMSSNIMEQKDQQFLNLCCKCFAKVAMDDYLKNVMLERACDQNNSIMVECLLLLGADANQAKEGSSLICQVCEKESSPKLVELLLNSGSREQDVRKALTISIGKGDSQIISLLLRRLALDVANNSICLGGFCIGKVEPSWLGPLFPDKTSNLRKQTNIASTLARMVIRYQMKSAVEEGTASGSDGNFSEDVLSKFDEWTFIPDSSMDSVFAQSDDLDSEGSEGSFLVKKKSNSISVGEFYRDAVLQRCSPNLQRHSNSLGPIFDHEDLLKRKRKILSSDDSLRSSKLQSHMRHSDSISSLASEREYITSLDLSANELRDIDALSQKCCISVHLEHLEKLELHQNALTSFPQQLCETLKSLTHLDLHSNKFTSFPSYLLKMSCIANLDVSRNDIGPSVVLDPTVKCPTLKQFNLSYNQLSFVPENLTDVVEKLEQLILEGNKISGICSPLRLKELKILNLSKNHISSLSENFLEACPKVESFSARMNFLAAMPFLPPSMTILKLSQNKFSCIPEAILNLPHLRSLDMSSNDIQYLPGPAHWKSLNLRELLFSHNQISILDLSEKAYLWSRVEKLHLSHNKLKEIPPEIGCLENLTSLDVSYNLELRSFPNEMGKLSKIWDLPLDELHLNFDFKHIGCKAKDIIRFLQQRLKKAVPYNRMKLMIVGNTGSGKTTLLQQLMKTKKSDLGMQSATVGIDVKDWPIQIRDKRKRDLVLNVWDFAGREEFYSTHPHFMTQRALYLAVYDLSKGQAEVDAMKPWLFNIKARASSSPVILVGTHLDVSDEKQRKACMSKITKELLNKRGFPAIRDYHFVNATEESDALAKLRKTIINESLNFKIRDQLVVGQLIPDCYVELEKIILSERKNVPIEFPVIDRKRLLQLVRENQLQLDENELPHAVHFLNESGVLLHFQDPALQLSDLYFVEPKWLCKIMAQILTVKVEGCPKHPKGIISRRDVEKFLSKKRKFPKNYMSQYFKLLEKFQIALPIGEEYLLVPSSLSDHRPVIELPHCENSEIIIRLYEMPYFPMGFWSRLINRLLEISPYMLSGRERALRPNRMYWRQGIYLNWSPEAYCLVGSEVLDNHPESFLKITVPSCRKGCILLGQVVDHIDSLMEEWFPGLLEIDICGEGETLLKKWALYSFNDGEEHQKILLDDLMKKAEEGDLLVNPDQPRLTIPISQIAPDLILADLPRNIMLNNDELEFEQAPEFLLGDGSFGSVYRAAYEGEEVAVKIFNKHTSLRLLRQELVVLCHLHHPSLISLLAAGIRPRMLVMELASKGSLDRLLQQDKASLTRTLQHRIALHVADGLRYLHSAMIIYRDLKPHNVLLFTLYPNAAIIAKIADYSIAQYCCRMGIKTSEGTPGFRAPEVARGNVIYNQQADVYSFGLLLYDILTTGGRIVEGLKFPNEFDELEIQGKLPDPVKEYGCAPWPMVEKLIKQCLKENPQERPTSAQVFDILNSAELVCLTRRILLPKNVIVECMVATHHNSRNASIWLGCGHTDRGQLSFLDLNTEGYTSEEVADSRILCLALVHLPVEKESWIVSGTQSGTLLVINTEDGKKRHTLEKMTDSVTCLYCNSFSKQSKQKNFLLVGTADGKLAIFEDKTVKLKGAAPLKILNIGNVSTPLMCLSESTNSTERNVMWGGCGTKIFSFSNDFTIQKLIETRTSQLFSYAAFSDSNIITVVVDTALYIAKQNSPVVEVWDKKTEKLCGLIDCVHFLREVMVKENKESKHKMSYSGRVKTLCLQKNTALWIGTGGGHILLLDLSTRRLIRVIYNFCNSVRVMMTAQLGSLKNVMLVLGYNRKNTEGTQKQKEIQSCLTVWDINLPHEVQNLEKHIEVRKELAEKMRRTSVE
Procedure: as §1
For LRRK2-WT or G2019S-LRRK2, ~1.5 million cells were pelleted and resuspended in 75 μl of lysis buffer [(RIPA Buffer (Sigma-Aldrich, R0278-50ML), protease inhibitor cocktail (Sigma-Aldrich, P8340), and Halt phosphatase inhibitor cocktail (Thermo Fisher, 78420)]. For LCLs, five million cells were pelleted and resuspended in 100 µl of lysis buffer. For both types of cells lysates were centrifuged at 10,000 × g after a 10 min incubation on ice, and the supernatant was collected. Protein was quantified using the DC protein assay (Bio-Rad, 5000112). In total, 50 μg of protein was loaded for HEK293 LRRK2-WT or G2019S-LRRK2 cells. Due to the differing endogenous LRRK2 levels, 40 µg of ND02559, 60 µg of ND00264, or 100 µg of ND00011 and ND01618 of protein sample was loaded. Protein samples were incubated at 100 °C for 5 min with NuPAGE Sample loading dye (Thermo Fisher, NP0007) and dithiothreitol as reducing agent. After 4–20% SDS-PAGE, the blots were blocked in 5% w/v nonfat dry milk in 1X PBST (0.05% Tween 20). For our investigations, the following primary antibodies were used: mouse anti-LRRK2 N241a (Antibodies INC, 75-253, 1:5000 for HEK293 cells and 1:2000 for LCLs), rabbit anti-LRRK2 pS935 (Abcam, ab133450, 1:10,000 for HEK293 cells and 1:2000 for LCLs), mouse anti-β-actin (Novus, 8H10D10, 1:10,000), and rabbit anti-LRRK2 pS1292 (Abcam, ab203181, 1:500). The blots were then probed with fluorescent-labeled secondary antibodies, IRDye donkey anti-mouse and anti-rabbit at 1:10,000 (LI-COR, 926-32212, 926-68072), and scanned using an Odyssey Imaging scanner (LI-COR). Fluorescence intensities were quantified using ImageStudio Lite software (LI-COR), and the signal from the protein of interest was normalized to the fluorescence intensity of either LRRK2 or β-actin. […]

[2] = biological target: T2, G2019S variant of human LRRK2 (G2019S-LRRK2); assay: LRRK2 pSer1292 autophosphorylation western immunoblot in HEK293 cells stably overexpressing G2019S-LRRK2; type: cell-based; conditions: for decrease in LRRK2 pSer1292 levels: G2019S-LRRK2 cells, 2 h
Procedure: as §1
For LRRK2-WT or G2019S-LRRK2, ~1.5 million cells were pelleted and resuspended in 75 μl of lysis buffer [(RIPA Buffer (Sigma-Aldrich, R0278-50ML), protease inhibitor cocktail (Sigma-Aldrich, P8340), and Halt phosphatase inhibitor cocktail (Thermo Fisher, 78420)]. For LCLs, five million cells were pelleted and resuspended in 100 µl of lysis buffer. For both types of cells lysates were centrifuged at 10,000 × g after a 10 min incubation on ice, and the supernatant was collected. Protein was quantified using the DC protein assay (Bio-Rad, 5000112). In total, 50 μg of protein was loaded for HEK293 LRRK2-WT or G2019S-LRRK2 cells. Due to the differing endogenous LRRK2 levels, 40 µg of ND02559, 60 µg of ND00264, or 100 µg of ND00011 and ND01618 of protein sample was loaded. Protein samples were incubated at 100 °C for 5 min with NuPAGE Sample loading dye (Thermo Fisher, NP0007) and dithiothreitol as reducing agent. After 4–20% SDS-PAGE, the blots were blocked in 5% w/v nonfat dry milk in 1X PBST (0.05% Tween 20). For our investigations, the following primary antibodies were used: mouse anti-LRRK2 N241a (Antibodies INC, 75-253, 1:5000 for HEK293 cells and 1:2000 for LCLs), rabbit anti-LRRK2 pS935 (Abcam, ab133450, 1:10,000 for HEK293 cells and 1:2000 for LCLs), mouse anti-β-actin (Novus, 8H10D10, 1:10,000), and rabbit anti-LRRK2 pS1292 (Abcam, ab203181, 1:500). The blots were then probed with fluorescent-labeled secondary antibodies, IRDye donkey anti-mouse and anti-rabbit at 1:10,000 (LI-COR, 926-32212, 926-68072), and scanned using an Odyssey Imaging scanner (LI-COR). Fluorescence intensities were quantified using ImageStudio Lite software (LI-COR), and the signal from the protein of interest was normalized to the fluorescence intensity of either LRRK2 or β-actin. Values were averaged from at least three technical replicates within a cell line, or two biological replicates (two healthy control lines and two PD LCLs). All blots were derived from the same experiment and processed in parallel.

[3] = set-up: method as in PMID 33197196; conditions: cited from earlier work
[4] = tested on: heterozygous G2019S LRRK2 PD patient-derived LCLs; set-up: method as in PMID 33057100; conditions: acute treatment (1.5 h) ref 49; cited from earlier work
R1441C LRRK2 cultures = tested on: R1441C LRRK2 cultures; set-up: method as in PMID 37384414; conditions: R1441C LRRK2 cultures ref 71; cited from earlier work

IC50 (human LRRK2 (WT-LRRK2); WT LRRK2 HEK293 cell line, 2 h treatment, 10 nM-1 μM titration, read-out: calculated half-maximal inhibition (IC50) of LRRK2 pSer935) [µM] | IC50 ([1]; G2019S LRRK2 HEK293 cell line, 2 h treatment, 10 nM-1 μM titration, read-out: calculated half-maximal inhibition (IC50) of LRRK2 pSer935) [µM] | decrease in LRRK2 pSer935 levels ([1]; G2019S-LRRK2 cells, 10 nM, 2 h) | fold more potent on G2019S LRRK2 than WT LRRK2 (pS935 IC50) ([1]; HEK293 overexpressing cells) [fold] | IC50 ([2]; G2019S-LRRK2 HEK293 cells, 2 h treatment, read-out: calculated IC50 of LRRK2 pSer1292) [µM] | decrease in LRRK2 pSer1292 levels ([2]; 10 nM) [%] | decrease in LRRK2 pSer1292 levels ([2]; 10 nM, listed as EB-42618) | decrease in LRRK2 pSer1292 levels ([2]; 100 nM) | SMILES | effect on LRRK2 pSer935 over the concentration range (in words) (human LRRK2 (WT-LRRK2); WT-LRRK2 cells, 10 nM up to 1 μM, 2 h) | brain penetration [3] | mtDNA damage [4] | impaired mitophagy and other mitochondrial parameters (R1441C LRRK2 cultures)
> 5 | 0.054 | no significant dephosphorylation | > 90 | 0.044 | 30 | dephosphorylated | ~ 70% and 65% | CC1=C(C(=O)Nc2ccc3[nH]nc(-c4ccnc(N5CCOCC5)c4)c3c2)C(C)(C)n2nnnc2N1C [EB-42168] | no inhibition; also recorded: no change; also recorded: no detectable effect | poorly brain penetrant |  | 
 |  |  |  |  |  |  |  | C[C@@H]1CN(c2cc(-c3n[nH]c4ccc(OC5(C)CC5)cc34)ncn2)C[C@H](C)O1 [MLi-2, reference compound] |  |  | restored mtDNA damage to healthy control levels | not corrected
